Measurements: patent US6197775A, “Phosphonate nucleotide derivatives” (Mitsubishi Chemical Corporation, priority 1995, dated 2001)
Like-named read-outs stand apart in the source and are kept apart here.

What was measured:
[1] = system: Hepatitis B virus (HBV); assay: Activity for inhibiting proliferation of Hepatitis B virus (HBV): inhibition of HBV-DNA synthesis in HB611 cells; type: cell-based; conditions: read-out: Inhibitory ratio against HBV-DNA synthesis (%)
Description: Activity for inhibiting proliferation of Hepatitis B virus (HBV)
Inhibitory activity of the compounds of the present invention against proliferation of HBV was measured by a known method (K. Ueda, et al., VIROLOGY, 169, 213-216 (1989)).
(§1) 2×10^4 HB611 cells (recombinant human liver cancer cells producing HBV) were cultured in Dulbecco's ME medium containing 10% fetal bovine serum, streptomycin (100 μg/ml), penicillin (100 IU/ml), and Geneteicin (trade name of an antibiotic sold by Life Technologies, 0.2 mg/ml) at 37° C. The medium was changed with fresh medium on the second day and fifth day of the culture, and then changed with a medium containing a test compound at a final concentration of 10 μM or 1 μM on the 8th, 11th and 14th days of the culture. DNA of the cells were collected on the 17th day of the culture. Amounts of HBV-DNA in the cells were measured by Southern blotting method and inhibitory rates against HBV-DNA synthesis were determined. Concentrations of compounds required for 50% death of HB611 cells were determined by cell titer 96 (trademark of Promega Corp.). As references, the same test was carried out by using PMEA and its bis(pivaloyloxymethyl ester). Compound Nos. in Table 2 correspond to those in Table 1.

[2] = Cytotoxicity for HB611 cells (cell titer 96); type: cell-based, human; conditions: human; 50% death of HB611 cells; read-out: 50% Cytotoxic concentration for HB611 cells
Description: as §1

[3] = system: HBV; assay: Inhibitory effect on HBV proliferation in a serum of a rat orally administered with a test compound (HB611 cells cultured with 5% serum); type: cell-based, Hepatitis B virus; conditions: 5% serum in medium
Description: Inhibitory effect on HBV proliferation in a serum of a rat orally administered with a test compound
A group consisting of three rats was orally administered with a test compound at a dose of 1 g/kg or 0.3 g/kg by a single oral administration. Blood of the rats was collected one hour after the administration and serum samples were prepared.
2×10^4 HB611 cells were cultured in Dulbecco's ME medium containing 10% fetal bovine serum, streptomycin (100 μg/ml), penicillin (100 IU/ml) and Geneteicin (0.2 mg/ml) at 37° C. The medium was changed with fresh medium on the second day and fifth day of the culture, and then changed with a medium containing 5% of the above serum (the serum of the rat orally administered with a test compound) on the 8th, 11th and 14th days of the culture. DNA of the cells were collected on the 17th day of the culture. Amounts of HBV-DNA in the cells were measured by Southern blotting method, and inhibitory ratios against […] synthesis in the cells were determined. As a reference, the same test was carried out by using PMEA. Compound Nos. in Table 3 correspond to those in Table 1.

[4] = system: polychromatic erythrocytes (bone marrow); assay: Micronucleus test using mice; type: in vivo
Description: Micronucleus test using mice
A test compound was administered to mice at a dose of 1,000 or 2,000 mg/kg, and bone marrow smear preparations were prepared at 24, 30, 48, and 72 hours after the administration. For a negative control group (0.5% aqueous solution of tragacanth gum) and a positive control group (2 mg/kg of mitomycin C (MMC) was administered as a single intraperitoneal administration), bone marrow smears were prepared at 24 hours after the administration. The samples were stained by the Giemsa's staining method in an ordinary manner, and then 2,000 polychromatic erythrocytes per animal were examined to determine the number of cells having micronuclei and frequency of appearance of micronuclei (%). As statistic analysis, significant difference test was carried out for polychromatic erythrocytes containing micronuclei between the negative control group and the group administered with a test compound according to the stochastic method of Kasternbaum and Bowman.
For comparison, the same test was carried out by using an unsubstituted 6-amino derivative, i.e., 9-[2-[bis(2,2,2-trifluoroethyl)phosphonylmethoxy]ethyl]-2,6-diaminopurine (abbreviated as "DAP"), and PMEA bis(pivaloyloxymethyl ester). Compound Nos. in Table 4 correspond to those in Table 1.

[5] = system: herpes simplex viruses type-1 (HSV-1); conditions: literature (Yokota et al.; Votruba et al.); cited from earlier work
[6] = system: herpes simplex viruses type-2 (HSV-2); conditions: literature (Yokota et al.; Votruba et al.); cited from earlier work
[7] = system: human immunodeficiency virus (HIV); conditions: literature (Yokota et al.; Votruba et al.); cited from earlier work
[8] = system: human hepatitis B virus (HBV); conditions: literature (Yokota et al.; Votruba et al.); cited from earlier work
[9] = system: HB611 cells; assay: Cytotoxicity for HB611 cells (cell titer 96); type: cell-based, human; conditions: 50% death of HB611 cells; read-out: 50% Cytotoxic concentration for HB611 cells
Description: as §1

[10] = 408 h, 1 μM, HB611 cells, DNA collected on 17th day
[11] = 408 h, 10 μM, HB611 cells, DNA collected on 17th day
[12] = serum of rats 1 h after single oral dose of 0.3 g/kg

Structure (SMILES) | inhibition at 1 µM [1, 10] [%] | inhibition at 10 µM [1, 11] [%] | CC50 [2] [µM] | Test result (micronucleus test) ([4]; mouse, in vivo) | further results
CN(C)c1nc(N)nc2c1ncn2CCOCP(=O)(OCC(F)(F)F)OCC(F)(F)F [Compound 11, 2-amino-9-[2-[bis(2,2,2-trifluoroethyl)phosphonylmethoxy]ethyl]-6-(dimethylamino)purine] | 92 | 100 | > 1000 | Negative | Inhibitory ratio against HBV-DNA synthesis (%) [3, 12]: 95.6%
CCCN(C)c1nc(N)nc2c1ncn2CCOCP(=O)(OCC(F)(F)F)OCC(F)(F)F [Compound 13, 2-amino-9-[2-[bis(2,2,2-trifluoroethyl)phosphonylmethoxy]-ethyl]-6-(methyl-1-propylamino)purine] | – | 100 | > 1000 | Negative | Inhibitory ratio against HBV-DNA synthesis (%) [3, 12]: 100%
CCCCN(C)c1nc(N)nc2c1ncn2CCOCP(=O)(OCC(F)(F)F)OCC(F)(F)F [Compound 15] | 86.7 | – | > 1000 | – | –
CCN(CC)c1nc(N)nc2c1ncn2CCOCP(=O)(OCC(F)(F)F)OCC(F)(F)F [Compound 16, 2-amino-9-[2-[bis(2,2,2-trifluoroethyl)phosphonylmethoxy]-ethyl]-6-(diethylamino)purine] | – | 100 | > 1000 | – | –
CN(C)c1nc(N)nc2c1nnn2CCOCP(=O)(OCC(F)(F)F)OCC(F)(F)F [Compound 21, 2-amino-8-aza-9-[2-[bis(2,2,2-trifluoroethyl)phosphonyl-methoxy]ethyl]-6-(dimethylamino)purine] | – | 100 | > 1000 | – | –
CN(c1ccccc1)c1nc(N)nc2c1ncn2CCOCP(=O)(OCC(F)(F)F)OCC(F)(F)F [Compound 621, 2-amino-9-[2-[bis(2,2,2-trifluoroethyl)phosphonyl-methoxy]ethyl]-6-(methylphenylamino)purine] | 68 | – | > 1000 | – | –
Nc1nc(N)c2ncn(CCOCP(=O)(OCC(F)(F)F)OCC(F)(F)F)c2n1 [DAP, 9-[2-[bis(2,2,2-trifluoroethyl)phosphonylmethoxy]ethyl]-2,6-diaminopurine, reference compound] | – | – | – | Positive | –
Nc1nc(N)c2ncn(CCOCP(=O)(O)O)c2n1 [PMDAP, 9-(2-phosphonylmethoxy)ethyl-2,6-diaminopurine] | – | – | – | – | effectiveness against HSV-1 [5]: effective; effectiveness against HSV-2 [6]: effective; effectiveness against HIV [7]: effective; effectiveness against HBV [8]: effective
CC(C)(C)C(=O)OCOP(=O)(COCCn1cnc2c(N)ncnc21)OCOC(=O)C(C)(C)C [PMEA ester, PMEA bis(pivaloyloxymethyl ester), reference compound] | – | – | – | – | inhibition at 1 µM ([1]; HB611, 408 h): 63.7%; inhibition at 10 µM ([1]; HB611, 408 h): 90%; CC50 [9]: 18 µM; Test result (micronucleus test) ([4]; mice, 1,000 or 2,000 mg/kg, bone marrow at 24, 30, 48, and 72 hours): Positive
Nc1ncnc2c1ncn2CCOCP(=O)(O)O [PMEA, 9-(2-phosphonylmethoxy)ethyladenine] | – | – | – | – | inhibition at 10 µM ([1]; HB611, 408 h): 83%; Inhibitory ratio against HBV-DNA synthesis (%) ([3]; serum of rats 1 h after single oral dose of 1 g/kg): 35.5%; effectiveness against HSV-1 [5]: effective; effectiveness against HSV-2 [6]: effective; effectiveness against HIV [7]: effective; effectiveness against HBV [8]: effective
